From paper PMC7865145, “Identification of existing pharmaceuticals and herbal medicines as inhibitors of SARS-CoV-2 infection” (Proceedings of the National Academy of Sciences of the …, 2021)
Where a name gives a salt, the structure may show the parent alone. Read-outs that look alike come from different tables or passages of the source.

Tested on: SARS-CoV-2 (hCoV-19/Taiwan/4/2020)
Assay: microbe, parasite or virus in culture
Assay type: cell-based
Settings: for block of viral infection in the cell-based assay (α-glucosidase inhibitors): Vero E6, tested conc. 100 μM (Fig. S4)
[1] = Vero E6, concentrations used in the screen (10, 3.3 and 1 μM)

Compound | inhibition against SARS-CoV-2 in the cell-based screen [1] | also measured
CC(=O)N[C@@H](C)C(=O)N[C@H](C(=O)N[C@@H](Cc1ccccc1)[C@@H](O)[C@H](O)[C@H](Cc1ccccc1)NC(=O)[C@@H](NC(=O)[C@H](C)NC(C)=O)C(C)C)C(C)C [JJS-0309] | – | inhibition against SARS-CoV-2 in the cell-based screen: did not show any inhibition
Cc1cccc(C)c1OCC(=O)N[C@@H](Cc1ccccc1)[C@@H](O)C[C@H](Cc1ccccc1)NC(=O)[C@H](C(C)C)N1CCCNC1=O [Lopinavir] | none of these showed inhibition | –
CN1C[C@H](O)[C@@H](O)[C@H](O)[C@H]1CO [N-methyl-1-deoxynojirimycin] | – | block of viral infection in the cell-based assay (α-glucosidase inhibitors): none was able to efficiently block the viral infection
CC(C)c1nc(CN(C)C(=O)N[C@H](C(=O)N[C@@H](Cc2ccccc2)C[C@H](O)[C@H](Cc2ccccc2)NC(=O)OCc2cncs2)C(C)C)cs1 [Ritonavir] | none of these showed inhibition | –
CCC[C@H](NC(=O)[C@@H]1[C@H]2CCC[C@H]2CN1C(=O)[C@@H](NC(=O)[C@@H](NC(=O)c1cnccn1)C1CCCCC1)C(C)(C)C)C(=O)C(=O)NC1CC1 [Telaprevir] | none of these showed inhibition | –
Nc1nc(NC2CC2)c2ncn([C@H]3C=C[C@@H](CO)C3)c2n1 [abacavir sulfate] | no active compound was identified | –
C[C@H]1O[C@H](O[C@H]2[C@H](O)[C@@H](O)[C@@H](O[C@H]3[C@H](O)[C@@H](O)C(O)O[C@@H]3CO)O[C@@H]2CO)[C@H](O)[C@@H](O)[C@@H]1N[C@H]1C=C(CO)[C@@H](O)[C@H](O)[C@H]1O (some centres unmarked) [acarbose] | – | block of viral infection in the cell-based assay (α-glucosidase inhibitors): none was able to efficiently block the viral infection
Nc1nc2c(ncn2COCCO)c(=O)[nH]1 [acyclovir] | no active compound was identified | –
CC(C)(C)C(=O)OCOP(=O)(COCCn1cnc2c(N)ncnc21)OCOC(=O)C(C)(C)C [adefovir dipivoxyl] | no active compound was identified | –
CC(C)CN(C[C@@H](O)[C@H](Cc1ccccc1)NC(=O)O[C@H]1CCOC1)S(=O)(=O)c1ccc(N)cc1 [amprenavir] | none of these showed inhibition | –
COC(=O)N[C@H](C(=O)N[C@@H](Cc1ccccc1)[C@@H](O)CN(Cc1ccc(-c2ccccn2)cc1)NC(=O)[C@@H](NC(=O)OC)C(C)(C)C)C(C)(C)C [atazanavir] | none of these showed inhibition | –
Nc1ccn(C[C@@H](CO)OCP(=O)(O)O)c(=O)n1 [cidofovir] | no active compound was identified | –
COC(=O)N[C@H](C(=O)N1CCC[C@H]1c1nc(-c2ccc(-c3ccc(-c4c[nH]c([C@@H]5CCCN5C(=O)[C@@H](NC(=O)OC)C(C)C)n4)cc3)cc2)c[nH]1)C(C)C [daclatasvir] | none of these showed inhibition | –
CC(C)(C)OC(=O)N[C@H]1CCCCC/C=C\[C@@H]2C[C@@]2(C(=O)NS(=O)(=O)C2CC2)NC(=O)[C@@H]2C[C@@H](OC(=O)N3Cc4cccc(F)c4C3)CN2C1=O [danoprevir] | none of these showed inhibition | –
CC(C)CN(C[C@@H](O)[C@H](Cc1ccccc1)NC(=O)O[C@H]1CO[C@H]2OCC[C@H]21)S(=O)(=O)c1ccc(N)cc1 [darunavir] | none of these showed inhibition | –
CC[C@H](CC[C@@H](C)[C@H]1CC[C@H]2[C@@H]3CC=C4C[C@@H](O[C@@H]5O[C@H](CO)[C@@H](O)[C@H](O)[C@H]5O)CC[C@]4(C)[C@H]3CC[C@]12C)C(C)C [daucosterol] | – | block of viral infection in the cell-based assay (α-glucosidase inhibitors): none was able to efficiently block the viral infection
CC(C)Nc1cccnc1N1CCN(C(=O)c2cc3cc(NS(C)(=O)=O)ccc3[nH]2)CC1 [delavirdine] | no active compound was identified | –
